Source: US20220267753A1, “RATIONAL THERAPEUTIC TARGETING OF ONCOGENIC IMMUNE SIGNALING STATES IN MYELOID MALIGNANCIES VIA THE UBIQUITIN CONJUGATING ENZYME UBE2N” (CHILDREN'S HOSPITAL MEDICAL CENTER, priority 2019, published 2022)

Assays:
[1] = system: MOLM-13 and THP-1 cells; test: Immunoblot / qRT-PCR of NF-κB, STAT1 and IRF signaling; type: cell-based, human; conditions: 2 μM
Method: mRNA expression of selected genes was corroborated by quantitative reverse transcriptase PCR (see primer sequences in Table 2) using cDNA with SYBR® Green or Taqman® gene expression assays (Applied Biosystems, Waltham, Mass.) on the StepOnePlus from Applied Biosystems. Abundance of each transcript was calculated using the Pfaffl Method. Actin or GAPDH were used as housekeeping genes.
For immunoblots, total protein lysates were obtained from cells by lysing the samples in cold RIPA buffer (50 mM Tris-HCl, 150 mM NaCl, 1 mM EDTA, 1% Triton X-100 and 0.1% SDS), in the presence of PMSF, sodium orthovanadate, protease and phosphatase inhibitors. After being re-suspended in RIPA, cells were lysed in the cold room with rocking for 15 min. Protein concentration was evaluated by a BCA assay (Pierce, Waltham, Mass.). SDS sample buffer was added to the lysates and the proteins were separated by SDS-polyacrylamide gel electrophoresis, transferred to PVDF or nitrocellulose membranes, and analyzed by immunoblotting. […] Membranes were imaged with Biorad ChemiDoc™ MP and analyzed with Image lab software 6.0.1 (Biorad, Hercules, Calif.) or Image J [67].

[2] = system: MDS92; test: Cell proliferation MTS assay; type: cell-based; conditions: Homo sapiens, 24 hours
Method: (§1) AML cell lines (5×10^3 cells/well) were seeded in 96-well plates and grown for 24 to 96 h in serum (10%)-containing medium in the presence or absence of inhibitors at the indicated concentrations. Proliferation was analyzed by means of an MTS assay using the CellTiter 96 Aqueous One Solution Cell Proliferation Assay (Promega, Madison, Wis., USA), according to the manufacturer's instructions. Data are mean with standard deviation from three independent experiments in technical triplicates. For the screening of 160 compounds from the UC library, the cell metabolic activity was assessed at 24 hours of treatment of MOLM-13 cells. Top 15 candidates were re-screened at 2 μM, and the cell metabolic activity was determined at 24 hours of treatment. In certain experiments, cell viability was determined by staining the cells with trypan blue at a 1/2 dilution and counting total number of viable cells upon treatment with UC-764864 or DMSO control. The cells were counted daily for 4 days using an automated cell counter (Countess II FL from Life Technologies). The cell proliferation in primary AMLs in FIG. 9E was performed as follows: 50,000 cells were plated in duplicate in a 96 well plate in IMDM containing 20% heat inactivated FBS plus 10 ng/ml of each SCF, IL3, IL6, TPO, and FLT3. UC-764864 was added at the indicated concentrations and cells were incubated with drug for 3 days, at which point cell viability was measured by MTS according to manufacturer's instructions.

[3] = system: KG-1a; test: Cell proliferation MTS assay; type: cell-based; conditions: Homo sapiens, 24 hours
Method: as §1

[4] = system: NOMO-1; test: Cell proliferation MTS assay; type: cell-based; conditions: Homo sapiens; NOMO-1, MTS, 24 hours
Method: as §1

[5] = system: MOLM-14; test: Cell proliferation MTS assay; type: cell-based; conditions: Homo sapiens; MOLM-14, MTS, 24 hours
Method: as §1

[6] = system: Kasumi-1; test: Cell proliferation MTS assay; type: cell-based; conditions: Homo sapiens; Kasumi-1, MTS, 24 hours
Method: as §1

[7] = system: THP-1; test: Cell proliferation MTS assay; type: cell-based; conditions: Homo sapiens; THP-1, MTS, 24 hours
Method: as §1

[8] = system: MV4-11; test: Cell proliferation MTS assay; type: cell-based; conditions: Homo sapiens; MV4-11, MTS, 24 hours
Method: as §1

[9] = system: SKM-1; test: Cell proliferation MTS assay; type: cell-based; conditions: Homo sapiens; SKM-1, MTS, 24 hours
Method: as §1

[10] = system: MDSL; test: Cell proliferation MTS assay; type: cell-based; conditions: Homo sapiens, 24 hours
Method: as §1

[11] = system: HL-60; test: Cell proliferation MTS assay; type: cell-based; conditions: Homo sapiens; HL-60, MTS, 24 hours
Method: as §1

[12] = molecular target: T1, UBE2N/UBE2V1 (Homo sapiens, UniProt P61088); test: Thioester bond formation assay; type: biochemical; conditions: read-out: inhibition of UBE2N-Ub thioester conjugate formation
T1 construct: purchased Enzo Life Science BML-UW9565
T1 sequence (P61088 whole entry): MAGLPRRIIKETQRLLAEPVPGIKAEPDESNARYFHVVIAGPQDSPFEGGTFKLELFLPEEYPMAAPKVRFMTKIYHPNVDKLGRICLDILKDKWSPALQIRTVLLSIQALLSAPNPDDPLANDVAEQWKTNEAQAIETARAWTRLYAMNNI
T1 sequence (Q13404 whole entry partner): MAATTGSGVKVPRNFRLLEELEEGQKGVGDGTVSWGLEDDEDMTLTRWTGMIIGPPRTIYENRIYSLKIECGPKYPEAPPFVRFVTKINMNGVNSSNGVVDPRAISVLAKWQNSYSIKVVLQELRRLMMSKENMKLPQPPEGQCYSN
Method: An in vitro Ubiquitin-E2 thioester (TE) bond formation assay was performed as described (Enzo Life Science, #BML-UW9920-0001, Farmingdale, N.Y.). The reaction was prepared as follows: 10×E2 (UBE2N/Mms2, No. BML-UW9565; UbcH5a, No. BML-UW9050; or UbcH6, Prod. No. BML-UW8710) were incubated with UC-764864 or UC-764865 at 1 or 2 μM for 30 minutes at room temperature. After the incubation period, the following reagents were added to the reaction: distilled water, 10× ubiquitination buffer, inorganic pyrophosphatase solution (100 U/mL in 20 mM Tris-HCl, pH 7.5, Sigma, 83205, St. Louis, Mo.), 50 mM DTT, 0.1 M Mg-ATP, 20×E1 (recombinant human ubiquitin-activating enzyme) and 20× biotinylated ubiquitin to a final volume of 10 p.l. The mixture was incubated for 4 hours at 37° C. The reaction was stopped by adding 10 p.l 2× non-reducing gel loading buffer. 15 p.l of the samples were run on SDS-PAGE gels and transferred to PVDF membrane. […] After washing the membrane for 6×10 mins with TBS-T on a rocking platform, total ubiquitin was detected with ECL detection reagent (Pierce™ ECL Western Blotting Substrate, #32106, Appleton, Wis.) according to the manufacturer's instructions. Detect emitted signal with Biorad ChemiDoc™ MP and analyzed with Image lab software 6.0.1 (Biorad, Hercules, Calif.) or Image J [67]. […]

CCc1ccc(C(=O)C=CSc2nc3ccc(C)cc3[nH]2)cc1 [UC-764864, 1-(4-ethylphenyl)-3-[(6-methyl-1H-benzimidazol-2-yl)sulfanyl]prop-2-en-1-one]
baseline NF-κB, STAT1, IRF7 and IRF1 activity in UBE2N-dependent AML cells [1]: inhibition
IC50 [2]: > 10 µM
IC50 [3]: > 10 µM
IC50 [4]: 6.7 µM
IC50 [5]: 0.02 µM
IC50 [6]: 6.6 µM
IC50 [7]: 2.5 µM
IC50 [8]: 5 µM
IC50 [9]: 0.4 µM
IC50 [10]: 5.6 µM
IC50 [11]: 4.3 µM
inhibition at 1 µM ([12]; 1 μM): 20%
inhibition at 2 µM ([12]; 2 μM): 80%
